US10654832B2, “3-(benzoimidazol-2-YL)-indazole inhibitors of the Wnt signaling pathway and therapeutic uses thereof” (Samumed, LLC, priority 2013, dated 2020)

System: Wnt activity (wnt-responsive SP5 promoter luciferase reporter in SW480 cells)
Experiment: Wnt activity reporter assay (SP5 promoter-firefly luciferase in SW480 cells)
Assay type: cell-based
Details: Homo sapiens; SW480 colon cancer cells with SP5 promoter luciferase reporter; 24 h after compound addition; half-log dilutions, three micromolar top concentration; normalized to DMSO; read-out: Wnt inhibition
Text: The above synthesized compounds were screened using the assay procedure for Wnt activity described below.
Reporter cell lines were generated by stably transducing cells of cancer cell lines (e.g., colon cancer) with a lentiviral construct that include a wnt-responsive promoter driving expression of the firefly luciferase gene.
Lentiviral constructs were made in which the SP5 promoter, a promoter having eight TCF/LEF binding sites derived from the SP5 promoter, was linked upstream of the firefly luciferase gene. The lentiviral constructs included a hygromycin resistance gene as a selectable marker. The SP5 promoter construct was used to transduce SW480 cells, a colon cancer cell line having a mutated APC gene that generates a truncated APC protein, leading to de-regulated accumulation of β-catenin.
Cultured SW480 cells bearing a reporter construct were distributed at approximately 10,000 cells per well into 384 well multiwell plates. Compounds were then added to the wells in half-log dilutions using a three micromolar top concentration. A series of control wells for each cell type received only buffer and compound solvent. Twenty-four hours after the addition of compound, reporter activity for luciferases was assayed, for example, by addition of the BrightGlo luminescence reagent (Promega) and the Victor3 plate reader (Perkin Elmer). Readings were normalized to DMSO only treated cells, and normalized activities were then used for the IC50 calculations.

Structure (SMILES)	IC50 [nM]
CCCCC(=O)Nc1cncc(-c2ccc3[nH]nc(-c4nc5c(-c6ccccn6)cccc5[nH]4)c3c2)c1 [Compound 138, N-(5-(3-(4-(Pyridin-2-yl)-1H-benzo[d]imidazol-2-yl)-1H-indazol-5-yl)pyridin-3-yl)pentanamide]	18
O=C(Nc1cncc(-c2ccc3[nH]nc(-c4nc5c(-c6ccccn6)cccc5[nH]4)c3c2)c1)C1CCC1 [Compound 140, N-(5-(3-(4-(Pyridin-2-yl)-1H-benzo[d]imidazol-2-yl)-1H-indazol-5-yl)pyridin-3-yl)cyclobutanecarboxamide]	8
O=C(Nc1cncc(-c2ccc3[nH]nc(-c4nc5c(-c6ccccn6)cccc5[nH]4)c3c2)c1)C1CCCCC1 [Compound 142, N-(5-(3-(4-(Pyridin-2-yl)-1H-benzo[d]imidazol-2-yl)-1H-indazol-5-yl)pyridin-3-yl)cyclohexanecarboxamide]	155
c1ccc(-c2cccc3[nH]c(-c4n[nH]c5ccc(-c6cncc(CNCC7CCCC7)c6)cc45)nc23)nc1 [Compound 144, 1-Cyclopentyl-N-((5-(3-(4-(pyridin-2-yl)-1H-benzo[d]imidazol-2-yl)-1H-indazol-5-yl)pyridin-3-yl)methyl)methanamine]	1180
CC(C)CC(=O)Nc1cncc(-c2ccc3[nH]nc(-c4nc5c(N6CCCCC6)cccc5[nH]4)c3c2)c1 [Compound 146, 3-Methyl-N-(5-(3-(4-(piperidin-1-yl)-1H-benzo[d]imidazol-2-yl)-1H-indazol-5-yl)pyridin-3-yl)butanamide]	58
CN(C)c1cncc(-c2ccc3[nH]nc(-c4nc5c(N6CCCCC6)cccc5[nH]4)c3c2)c1 [Compound 151, N,N-Dimethyl-5-(3-(4-(piperidin-1-yl)-1H-benzo[d]imidazol-2-yl)-1H-indazol-5-yl)pyridin-3-amine]	41
O=C(Nc1cncc(-c2ccc3[nH]nc(-c4nc5c(N6CCCCC6)cccc5[nH]4)c3c2)c1)c1ccccc1 [Compound 155, N-(5-(3-(4-(Piperidin-1-yl)-1H-benzo[d]imidazol-2-yl)-1H-indazol-5-yl)pyridin-3-yl)benzamide]	289
CC(C)Nc1cncc(-c2ccc3[nH]nc(-c4nc5c(N6CCCCC6)cccc5[nH]4)c3c2)c1 [Compound 156, N-Isopropyl-5-(3-(4-(piperidin-1-yl)-1H-benzo[d]imidazol-2-yl)-1H-indazol-5-yl)pyridin-3-amine]	66
c1cc(N2CCCCC2)c2nc(-c3n[nH]c4ccc(-c5cncc(CN6CCCC6)c5)cc34)[nH]c2c1 [Compound 158, 3-(4-(Piperidin-1-yl)-1H-benzo[d]imidazol-2-yl)-5-(5-(pyrrolidin-1-ylmethyl)pyridin-3-yl)-1H-indazole]	116
CCCCC(=O)Nc1cncc(-c2ccc3[nH]nc(-c4nc5c(N6CCCCC6)cccc5[nH]4)c3c2)c1 [Compound 162, N-(5-(3-(4-(Piperidin-1-yl)-1H-benzo[d]imidazol-2-yl)-1H-indazol-5-yl)pyridin-3-yl)pentanamide]	140
O=C(Nc1cncc(-c2ccc3[nH]nc(-c4nc5c(N6CCCCC6)cccc5[nH]4)c3c2)c1)C1CCCCC1 [Compound 166, N-(5-(3-(4-(Piperidin-1-yl)-1H-benzo[d]imidazol-2-yl)-1H-indazol-5-yl)pyridin-3-yl)cyclohexanecarboxamide]	445
Cc1cn(-c2cccc3[nH]c(-c4n[nH]c5ccc(-c6cnccc6C)cc45)nc23)cn1 [Compound 173]	46
Cc1cn(-c2cccc3[nH]c(-c4n[nH]c5ccc(-c6cncc(NC(=O)c7ccccc7)c6)cc45)nc23)cn1 [Compound 179, N-(5-(3-(4-(4-Methyl-1H-imidazol-1-yl)-1H-benzo[d]imidazol-2-yl)-1H-indazol-5-yl)pyridin-3-yl)benzamide]	10
Cc1cn(-c2cccc3[nH]c(-c4n[nH]c5ccc(-c6cncc(NC(=O)CC(C)(C)C)c6)cc45)nc23)cn1 [Compound 184, 3,3-Dimethyl-N-(5-(3-(4-(4-methyl-1H-imidazol-1-yl)-1H-benzo[d]imidazol-2-yl)-1H-indazol-5-yl)pyridin-3-yl)butanamide]	115
CCCCC(=O)Nc1cncc(-c2ccc3[nH]nc(-c4nc5c(-n6cnc(C)c6)cccc5[nH]4)c3c2)c1 [Compound 186, N-(5-(3-(4-(4-Methyl-1H-imidazol-1-yl)-1H-benzo[d]imidazol-2-yl)-1H-indazol-5-yl)pyridin-3-yl)pentanamide]	6
Cc1cn(-c2cccc3[nH]c(-c4n[nH]c5ccc(-c6cncc(NC(=O)C7CCCC7)c6)cc45)nc23)cn1 [Compound 189, N-(5-(3-(4-(4-Methyl-1H-imidazol-1-yl)-1H-benzo[d]imidazol-2-yl)-1H-indazol-5-yl)pyridin-3-yl)cyclopentanecarboxamide]	13
Cc1cn(-c2cccc3[nH]c(-c4n[nH]c5ccc(-c6cncc(CNCc7ccccc7)c6)cc45)nc23)cn1 [Compound 191, N-Benzyl-1-(5-(3-(4-(4-methyl-1H-imidazol-1-yl)-1H-benzo[d]imidazol-2-yl)-1H-indazol-5-yl)pyridin-3-yl)methanamine]	138

Structure (SMILES)	IC50 [nM]
CN1CCN(c2cccc3[nH]c(-c4n[nH]c5ccc(-c6cccnc6)cc45)nc23)CC1 [Compound 196, 3-(4-(4-Methylpiperazin-1-yl)-1H-benzo[d]imidazol-2-yl)-5-(pyridin-3-yl)-1H-indazole]	28
Cc1ccncc1-c1ccc2[nH]nc(-c3nc4c(N5CCN(C)CC5)cccc4[nH]3)c2c1 [Compound 197, 3-(4-(4-Methylpiperazin-1-yl)-1H-benzo[d]imidazol-2-yl)-5-(4-methylpyridin-3-yl)-1H-indazole]	249
CN1CCN(c2cccc3[nH]c(-c4n[nH]c5ccc(-c6cncc(NC(=O)C(C)(C)C)c6)cc45)nc23)CC1 [Compound 200, N-(5-(3-(4-(4-Methylpiperazin-1-yl)-1H-benzo[d]imidazol-2-yl)-1H-indazol-5-yl)pyridin-3-yl)pivalamide]	76
CN1CCN(c2cccc3[nH]c(-c4n[nH]c5ccc(-c6cncc(NC(=O)Cc7ccccc7)c6)cc45)nc23)CC1 [Compound 202, N-(5-(3-(4-(4-methylpiperazin-1-yl)-1H-benzo[d]imidazol-2-yl)-1H-indazol-5-yl)pyridin-3-yl)-2-phenylacetamide]	248
CCCC(=O)Nc1cncc(-c2ccc3[nH]nc(-c4nc5c(N6CCN(C)CC6)cccc5[nH]4)c3c2)c1 [Compound 209, N-(5-(3-(4-(4-Methylpiperazin-1-yl)-1H-benzo[d]imidazol-2-yl)-1H-indazol-5-yl)pyridin-3-yl)butyramide]	61
CN1CCN(c2cccc3[nH]c(-c4n[nH]c5ccc(-c6cncc(NC(=O)C7CCCC7)c6)cc45)nc23)CC1 [Compound 213, N-(5-(3-(4-(4-Methylpiperazin-1-yl)-1H-benzo[d]imidazol-2-yl)-1H-indazol-5-yl)pyridin-3-yl)cyclopentanecarboxamide]	195
CC(C)CC(=O)Nc1cncc(-c2ccc3[nH]nc(-c4nc5ccccc5[nH]4)c3c2)c1 [Compound 218, N-(5-(3-(1H-Benzo[d]imidazol-2-yl)-1H-indazol-5-yl)pyridin-3-yl)-3-methylbutanamide]	37
c1cncc(-c2ccc3[nH]nc(-c4nc5ccccc5[nH]4)c3c2)c1 [Compound 220]	165
Cc1ccncc1-c1ccc2[nH]nc(-c3nc4ccccc4[nH]3)c2c1 [Compound 221, 3-(1H-Benzo[d]imidazol-2-yl)-5-(4-methylpyridin-3-yl)-1H-indazole]	317
CCNCc1cncc(-c2ccc3[nH]nc(-c4nc5ccccc5[nH]4)c3c2)c1 [Compound 222]	235
CC(C)C(=O)Nc1cncc(-c2ccc3[nH]nc(-c4nc5ccccc5[nH]4)c3c2)c1 [Compound 225, N-(5-(3-(1H-Benzo[d]imidazol-2-yl)-1H-indazol-5-yl)pyridin-3-yl) isobutyramide]	28
O=C(Nc1cncc(-c2ccc3[nH]nc(-c4nc5ccccc5[nH]4)c3c2)c1)c1ccccc1 [Compound 227, N-(5-(3-(1H-Benzo[d]imidazol-2-yl)-1H-indazol-5-yl)pyridin-3-yl) benzamide]	99
CC(C)(C)CC(=O)Nc1cncc(-c2ccc3[nH]nc(-c4nc5ccccc5[nH]4)c3c2)c1 [Compound 232, N-(5-(3-(1H-Benzo[d]imidazol-2-yl)-1H-indazol-5-yl)pyridin-3-yl)-3,3-dimethylbutanamide]	65
CCCCC(=O)Nc1cncc(-c2ccc3[nH]nc(-c4nc5ccccc5[nH]4)c3c2)c1 [Compound 234, N-(5-(3-(1H-Benzo[d]imidazol-2-yl)-1H-indazol-5-yl)pyridin-3-yl) pentanamide]	123
O=C(Nc1cncc(-c2ccc3[nH]nc(-c4nc5ccccc5[nH]4)c3c2)c1)C1CC1 [Compound 235, N-(5-(3-(1H-Benzo[d]imidazol-2-yl)-1H-indazol-5-yl)pyridin-3-yl) cyclopropanecarboxamide]	25
O=C(Nc1cncc(-c2ccc3[nH]nc(-c4nc5ccccc5[nH]4)c3c2)c1)C1CCCCC1 [Compound 238, N-(5-(3-(1H-Benzo[d]imidazol-2-yl)-1H-indazol-5-yl)pyridin-3-yl) cyclohexanecarboxamide]	147
